According to ChEMBL document CHEMBL5126607, “Discovery and In Vivo Evaluation of ACT-660602: A Potent and Selective Antagonist of the Chemokine Receptor CXCR3 for Autoimmune Diseases” (J Med Chem, 2022):

Experiments:
[1] = biological target: T1, C-X-C chemokine receptor type 3 (Homo sapiens, UniProt P49682)
T1 sequence (P49682 whole entry): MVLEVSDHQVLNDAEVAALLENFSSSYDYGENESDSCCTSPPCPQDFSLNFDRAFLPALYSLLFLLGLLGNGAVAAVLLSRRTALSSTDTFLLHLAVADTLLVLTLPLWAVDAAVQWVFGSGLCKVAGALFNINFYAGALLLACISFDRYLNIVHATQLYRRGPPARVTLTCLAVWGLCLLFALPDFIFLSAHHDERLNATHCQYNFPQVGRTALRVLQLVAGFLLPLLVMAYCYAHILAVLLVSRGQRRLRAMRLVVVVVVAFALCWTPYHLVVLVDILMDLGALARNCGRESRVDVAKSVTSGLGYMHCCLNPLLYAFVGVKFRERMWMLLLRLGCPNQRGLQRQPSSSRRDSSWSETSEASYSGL
Description: Antagonist activity at recombinant human CXCR3 expressed in human CHO-K1 cells co-expressing Galpha15 incubated for 10 mins by Fluo-4AM dye based FLIPR assay

[2] = biological target: T1, C-X-C chemokine receptor type 3; remark: listed apart in the source
Description: Inhibition of CXCR3 receptor internalization in human venous whole blood incubated for 30 mins by flow cytometer analysis

[3] = biological target: Voltage-gated inwardly rectifying potassium channel KCNH2 (Homo sapiens, UniProt Q12809); assay: Inhibition of hERG expressed in CHO cells by Q patch-clamp method
[4] = biological target: T1, C-X-C chemokine receptor type 3; remark: listed apart in the source
Description: Antagonist activity at recombinant human CXCR3 in human U2SO cells assessed as reduction in CXCL10-induced beta-arrestin recruitment by TANGO assay

[5] = in vitro; settings: human
[6] = biological target: T2, hERG (Homo sapiens, UniProt Q12809); assay: Inhibition of hERG expressed in CHO cells 10 uM at by Q patch-clamp method relative to control
[7] = Lipophilicity, log D of the compound at pH 7.4; settings: buffer
[8] = human, microsomes, 1 µM
[9] = Fractional unbound plasma concentration in Balb/c mouse at 10 mg/kg, po
[10] = in vivo; settings: Balb/c, mouse, po, 10 mg/kg
[11] = in vivo; settings: Balb/c, mouse, po, 10 mg/kg; remark: listed apart in the source
[12] = in vivo; settings: Balb/c, mouse, po, 10 mg/kg; remark: listed apart in the source
[13] = Fractional unbound plasma concentration in Wistar rat at 0.5 mg/kg, iv and 2 mg/kg, po; settings: in vivo
[14] = Half life in Wistar rat at 0.5 mg/kg, iv and 2 mg/kg, po; settings: in vivo
[15] = Metabolic stability in rat hepatocyte assessed as intrinsic clearance measured per 10^6 cells in presence of NADPH regenerating system by LC-MS/MS analysis; settings: hepatocytes
[16] = Metabolic stability in Beagle dog hepatocyte assessed as intrinsic clearance measured per 10^6 cells in presence of NADPH regenerating system by LC-MS/MS analysis; settings: hepatocytes
[17] = Fractional unbound plasma concentration in Beagle dog at 0.5 mg/kg, iv and 2 mg/kg, po
[18] = in vivo; settings: Wistar, rat, po, 2 mg/kg
[19] = in vivo; settings: Wistar, rat, po, 2 mg/kg; remark: listed apart in the source
[20] = in vivo; settings: Wistar, rat, po, 2 mg/kg; remark: listed apart in the source
[21] = in vivo; settings: Wistar, rat, po, 2 mg/kg; remark: listed apart in the source
[22] = biological target: T2, hERG; assay: Inhibition of hERG expressed in CHO cells 3 uM at by Q patch-clamp method relative to control; assay type: toxicity, cell-based; settings: CHO cells that express hERG

T2 sequence (Q12809 whole entry): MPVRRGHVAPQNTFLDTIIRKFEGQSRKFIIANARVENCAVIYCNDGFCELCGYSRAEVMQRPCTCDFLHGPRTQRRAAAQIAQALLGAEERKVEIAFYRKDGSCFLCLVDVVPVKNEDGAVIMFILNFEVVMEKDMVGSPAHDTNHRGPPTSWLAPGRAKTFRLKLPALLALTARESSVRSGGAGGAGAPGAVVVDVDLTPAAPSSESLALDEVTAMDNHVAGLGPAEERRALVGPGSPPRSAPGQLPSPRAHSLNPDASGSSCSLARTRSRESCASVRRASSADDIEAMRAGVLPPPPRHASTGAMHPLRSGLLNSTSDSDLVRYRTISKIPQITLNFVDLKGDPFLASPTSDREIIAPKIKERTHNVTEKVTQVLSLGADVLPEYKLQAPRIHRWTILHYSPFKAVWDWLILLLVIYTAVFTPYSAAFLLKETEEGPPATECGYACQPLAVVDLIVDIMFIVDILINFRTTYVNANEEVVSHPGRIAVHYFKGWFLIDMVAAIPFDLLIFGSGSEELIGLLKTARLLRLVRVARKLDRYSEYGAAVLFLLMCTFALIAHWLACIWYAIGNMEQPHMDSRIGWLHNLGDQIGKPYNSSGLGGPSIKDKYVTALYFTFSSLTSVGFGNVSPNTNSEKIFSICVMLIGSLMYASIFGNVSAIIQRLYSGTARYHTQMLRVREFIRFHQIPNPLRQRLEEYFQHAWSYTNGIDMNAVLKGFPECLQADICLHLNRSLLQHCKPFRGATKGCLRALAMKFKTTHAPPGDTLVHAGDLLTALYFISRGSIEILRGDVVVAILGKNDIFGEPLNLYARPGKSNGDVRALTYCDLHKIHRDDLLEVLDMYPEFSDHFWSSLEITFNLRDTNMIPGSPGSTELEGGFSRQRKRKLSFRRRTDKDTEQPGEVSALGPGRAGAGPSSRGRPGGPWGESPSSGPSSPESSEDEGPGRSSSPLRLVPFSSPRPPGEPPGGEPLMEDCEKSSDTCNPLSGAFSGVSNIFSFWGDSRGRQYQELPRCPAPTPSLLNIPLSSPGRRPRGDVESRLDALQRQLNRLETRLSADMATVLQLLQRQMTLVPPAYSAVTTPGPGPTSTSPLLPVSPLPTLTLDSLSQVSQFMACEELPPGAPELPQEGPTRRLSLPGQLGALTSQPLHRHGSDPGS
Sequence of Voltage-gated inwardly rectifying potassium channel KCNH2 (Q12809 whole entry): as above

Row | SMILES | IC50 [1] [nM] | IC50 [2] [nM] | IC50 [3] [µM] | IC50 [4] [nM] | also measured
1 | O=C(Cn1cnc2cccnc21)N1CCN(c2ccccc2-c2nc3ccccc3[nH]2)CC1 | 4.3 | 230 | – | – | –
2 | CCOc1ncc(-c2nc(C(F)(F)F)sc2N2CCN(C(=O)CN3C(=O)Cc4ccccc43)[C@H](C)C2)cn1 | – | – | 3 | – | –
3 | C[C@@H]1CN(c2sc(Br)nc2-c2nc3ccccc3[nH]2)CCN1C(=O)Cn1cnc2cccnc21 | 2.8 | 526 | 0.34 | 126 | –
4 | CCOc1ncc(-c2nc(C(F)(F)F)sc2N2CCN(C(=O)Cn3cnc4ccccc43)[C@H](C)C2)cn1 | – | – | 4.7 | – | –
5 | CCOc1ccc(-c2nc(C(F)(F)F)sc2N2CCN(C(=O)Cn3nc(C)nc3C)[C@H](C)C2)cn1 | 8.8 | 887 | > 20 | 505 | microsomal CLint at 1 µM ([5]; microsomes): 66 µL/min/mg
6 | COCCOc1ncc(-c2nc(C(F)(F)F)sc2N2CCN(C(=O)Cn3cnc4cccnc43)[C@H](C)C2)cn1 | – | – | > 20 | – | inhibition at 10 µM [6]: 17%
7 | COc1ccc(-c2nc(C(F)(F)F)sc2N2CCN(C(=O)Cn3nc(C)nc3C)[C@H](C)C2)cn1 | – | – | > 20 | – | –
8 | Cc1nc(C)n(CC(=O)N2CCN(c3sc(C(F)(F)F)nc3-c3cnc(C4CC4)nc3)C[C@H]2C)n1 | 3.5 | 674 | 13 | 349 | microsomal CLint at 1 µM ([5]; microsomes): < 10 µL/min/mg
9 | CCOc1ncc(-c2nc(C(F)(F)F)sc2N2CCN(C(=O)Cn3nc(C)cc3C)[C@H](C)C2)cn1 | 2.3 | 60 | 13 | 87 | logD [7]: 3.7; microsomal CLint at 1 µM ([5]; microsomes): 184 µL/min/mg
10 | C[C@@H]1CN(c2sc(C3COC3)nc2-c2nc3ccccc3[nH]2)CCN1C(=O)Cn1cnc2cccnc21 | 53 | 1150 | 4.4 | 6220 | microsomal CLint at 1 µM ([5]; microsomes): 38 µL/min/mg
11 | CCOc1ncc(-c2nc(C(F)(F)F)sc2N2CCN(C(=O)Cn3ncc4cccnc43)[C@H](C)C2)cn1 | – | – | 15 | – | –
12 | CCCc1ncc(-c2nc(C(F)(F)F)sc2N2CCN(C(=O)Cn3nc(C)nc3C)[C@H](C)C2)cn1 | 4.4 | 367 | > 20 | 258 | microsomal CLint at 1 µM ([5]; microsomes): 80 µL/min/mg
13 | O=C(Nc1cccnc1N1CCN(C(=O)Cn2cnc3cccnc32)CC1)c1cccc(Cl)c1 | 4.2 | – | – | – | –
14 | O=C(Nc1ccccc1N1CCN(C(=O)Cn2cnc3cccnc32)CC1)c1cccc(Cl)c1 | 1.6 | – | – | – | –
15 | C[C@H]1CN(c2scnc2-c2nc3ccccc3[nH]2)CCN1C(=O)Cn1cnc2cccnc21 | 67 | – | 0.63 | 8030 | –
16 | CCOc1ncc(-c2nc(C(F)(F)F)sc2N2CCN(C(=O)Cn3ccc4cnccc43)[C@H](C)C2)cn1 | – | – | 0.57 | – | –
17 | CCOc1ncc(-c2nc(C(F)(F)F)sc2N2CCN(C(=O)Cn3ccc4cccnc43)[C@H](C)C2)cn1 | – | – | 4.2 | – | –
18 | Cc1nc(C)n(CC(=O)N2CCN(c3sc(C(F)(F)F)nc3-c3ccc(C(F)(F)F)nc3)C[C@H]2C)n1 | 4.2 | 860 | 5.2 | 608 | microsomal CLint at 1 µM ([5]; microsomes): < 10 µL/min/mg
19 | COc1ncc(-c2nc(C(F)(F)F)sc2N2CCN(C(=O)Cn3nc(C)nc3C)[C@H](C)C2)cn1 | – | – | > 20 | – | –
20 | CCCc1ncc(-c2nc(C(F)(F)F)sc2N2CCN(C(=O)Cn3cnc4cccnc43)[C@H](C)C2)cn1 | – | – | 5.9 | – | inhibition at 10 µM [6]: 57%
21 | CCOc1ncc(-c2nc(C(F)(F)F)sc2N2CCN(C(=O)Cn3ccc(C(F)(F)F)n3)[C@H](C)C2)cn1 | 3.8 | 90 | 5.1 | 93 | microsomal CLint at 1 µM ([5]; microsomes): 20 µL/min/mg
22 | O=C(Cn1cnc2cccnc21)N1CCN(c2ncsc2-c2nc3ccccc3[nH]2)CC1 | 4200 | – | – | – | –

Row | SMILES | IC50 [1] [nM] | IC50 [2] [nM] | IC50 [3] [µM] | IC50 [4] [nM] | also measured
23 | C[C@@H]1CN(c2sc(C(F)(F)F)nc2-c2cnc(OCCN(C)C)nc2)CCN1C(=O)Cn1cnc2cccnc21 | 6.7 | 381 | > 20 | 140 | inhibition at 10 µM [6]: 25%; CLH [8]: 29 µL/min/kg
24 | Cc1ncc(-c2nc(C(F)(F)F)sc2N2CCN(C(=O)Cn3cnc4cccnc43)[C@H](C)C2)cn1 | – | – | 15 | – | inhibition at 10 µM [6]: 40%
25 | C[C@@H]1CN(c2sc(CO)nc2-c2nc3ccccc3[nH]2)CCN1C(=O)Cn1cnc2cccnc21 | 171 | 3380 | 19 | > 10000 | –
26 | CCc1nc(-c2nc3ccccc3[nH]2)c(N2CCN(C(=O)Cn3cnc4cccnc43)[C@H](C)C2)s1 | – | – | – | – | microsomal CLint at 1 µM ([5]; liver microsomes): 88 µL/min/mg
27 | O=C(Cn1cnc2cccnc21)N1CCN(c2scnc2-c2nc3ccccc3[nH]2)CC1 | 30 | 1440 | – | – | –
28 | C[C@@H]1CN(c2sc(C3CC3)nc2-c2nc3ccccc3[nH]2)CCN1C(=O)Cn1cnc2cccnc21 | 9.7 | 994 | 0.38 | 745 | –
29 | COc1ccc(-c2nc(C(F)(F)F)sc2N2CCN(C(=O)Cn3cnc4cccnc43)[C@H](C)C2)cc1 | – | – | 8.8 | – | inhibition at 10 µM [6]: 53%
30 | CCOc1ncc(-c2nc(C(F)(F)F)sc2N2CCN(C(=O)Cn3cnc4cccnc43)[C@H](C)C2)cn1 | 2 | 48 | 13 | 20 | fraction unbound [9]: 0.008; inhibition at 10 µM [6]: 44%; CLH [8]: 75 µL/min/kg; AUC [10]: 1590 ng·h/mL; Cmax [11]: 1800 ng/mL; Tmax [12]: 30 min
31 | COc1ncc(-c2nc(C(F)(F)F)sc2N2CCN(C(=O)Cn3cnc4cccnc43)[C@H](C)C2)cn1 | 3.8 | 158 | > 20 | 177 | inhibition at 10 µM [6]: 19%; CLH [8]: 14 µL/min/kg
32 | CC[C@@H]1CN(c2scnc2-c2nc3ccccc3[nH]2)CCN1C(=O)Cn1cnc2cccnc21 | 3.9 | – | 0.75 | 604 | –
33 | CCOc1ncc(-c2nc(C(F)(F)F)sc2N2CCN(C(=O)Cn3cc(Cl)cn3)[C@H](C)C2)cn1 | – | – | 2.8 | – | –
34 | Cc1nc(C)n(CC(=O)N2CCN(c3sc(C(F)(F)F)nc3-c3cnc(N4CCCC4)nc3)C[C@H]2C)n1 | 3.5 | 352 | > 20 | 523 | –
35 | Cc1nc(C)n(CC(=O)N2CCN(c3sc(C(F)(F)F)nc3-c3cnc(C(C)(C)C)nc3)C[C@H]2C)n1 | – | – | > 20 | – | –
36 | CCOc1ncc(-c2nc(C(F)(F)F)sc2N2CCN(C(=O)Cn3c(=O)oc4ccccc43)[C@H](C)C2)cn1 | 3.3 | 536 | 2.2 | 99 | –
37 | Cc1nc(C)n(CC(=O)N2CCN(c3sc(C(F)(F)F)nc3-c3cnc(OC(C)C)nc3)C[C@H]2C)n1 | 3.4 | 216 | > 20 | 138 | fraction unbound [13]: 0.035; half-life [14]: 108 min; hepatocyte CLint [15]: 2.5 µL/min/1e6 cells; hepatocyte CLint [16]: 6.8 µL/min/1e6 cells; fraction unbound [17]: 0.192; AUC [18]: 3980 ng·h/mL; Cmax [19]: 806 ng/mL; Tmax [20]: 30 min; bioavailability [21]: 89%; microsomal CLint at 1 µM ([5]; microsomes): 16 µL/min/mg
38 | Cc1nc(C)n(CC(=O)N2CCN(c3sc(C(F)(F)F)nc3-c3cnc(OC4CCC4)nc3)C[C@H]2C)n1 | 4 | 306 | > 20 | 78 | logD [7]: 3.6; microsomal CLint at 1 µM ([5]; microsomes): 51 µL/min/mg
39 | CCOc1ncc(-c2nc(C(F)(F)F)sc2N2CCN(C(=O)Cn3nccc3C)[C@H](C)C2)cn1 | 2 | 289 | 5.6 | 162 | microsomal CLint at 1 µM ([5]; microsomes): 65 µL/min/mg
40 | CCc1ncc(-c2nc(C(F)(F)F)sc2N2CCN(C(=O)Cn3nc(C)nc3C)[C@H](C)C2)cn1 | – | – | > 20 | – | –
41 | Cc1nc(-c2nc3ccccc3[nH]2)c(N2CCN(C(=O)Cn3cnc4cccnc43)[C@H](C)C2)s1 | 9 | 1060 | 2.6 | 1050 | microsomal CLint at 1 µM ([5]; microsomes): 23 µL/min/mg
42 | C[C@@H]1CN(c2sc(CN(C)C)nc2-c2nc3ccccc3[nH]2)CCN1C(=O)Cn1cnc2cccnc21 | 50 | 1150 | 20 | 2360 | inhibition at 10 µM [6]: 28%; microsomal CLint at 1 µM ([5]; microsomes): 44 µL/min/mg
43 | Cc1ncc(-c2nc(C(F)(F)F)sc2N2CCN(C(=O)Cn3nc(C)nc3C)[C@H](C)C2)cn1 | – | – | > 20 | – | –
44 | CCOc1ncc(-c2nc(C(F)(F)F)sc2N2CCN(C(=O)Cn3cnc(C(F)(F)F)n3)[C@H](C)C2)cn1 | – | – | > 6 | – | inhibition at 3 µM [22]: 31%
